Measured values: ChEMBL document CHEMBL1144405, “Synthesis and cellular studies of nonaggregated water-soluble phthalocyanines” (J Med Chem, 2005)

Key:
HEp-2 [1] = test: Percent of cell viability for the compound was measured in human HEp2 cells; assay type: functional
V79 = test: Percent of cell viability for the compound was measured in hamster V79 cells; assay type: functional, Cricetulus griseus
HEp2 (human) = test: Inhibitory concentration was measured against human HEp2 cells; upon exposure to light (1 J/cm**2); details: HEp2, light or radiation study
HEp-2 [2] = test: Inhibitory concentration was measured against human HEp2 cells; upon exposure to light (1 J/cm**2); assay type: functional, cell-based; details: HEp-2, light or radiation study

IC50 (HEp2 (human)) [µM]	IC50 (HEp-2 [2]) [µM]	Structure (SMILES)	Viability (HEp-2 [1]) [%]	Viability (V79) [%]
4.5	4.5	O=C([O-])c1cc(Oc2cc3c(cc2Oc2cc(C(=O)[O-])cc(C(=O)O)c2)-c2nc-3nc3[nH]c(nc4nc(nc5[nH]c(n2)c2cc(Oc6cc(C(=O)[O-])cc(C(=O)[O-])c6)c(Oc6cc(C(=O)[O-])cc(C(=O)O)c6)cc52)-c2cc(Oc5cc(C(=O)[O-])cc(C(=O)O)c5)c(Oc5cc(C(=O)[O-])cc(C(=O)O)c5)cc2-4)c2cc(Oc4cc(C(=O)[O-])cc(C(=O)O)c4)c(Oc4cc(C(=O)[O-])cc(C(=O)[O-])c4)cc32)cc(C(=O)[O-])c1.[Na+].[Na+].[Na+].[Na+].[Na+].[Na+].[Na+].[Na+].[Na+].[Zn+2]	80	80
		O=C(O)c1cc(Oc2cc3c(cc2Oc2cc(C(=O)O)cc(C(=O)O)c2)-c2nc-3nc3[n-]c(nc4nc(nc5[n-]c(n2)c2cc(Oc6cc(C(=O)O)cc(C(=O)O)c6)c(Oc6cc(C(=O)O)cc(C(=O)O)c6)cc52)-c2cc(Oc5cc(C(=O)O)cc(C(=O)O)c5)c(Oc5cc(C(=O)O)cc(C(=O)O)c5)cc2-4)c2cc(Oc4cc(C(=O)O)cc(C(=O)O)c4)c(Oc4cc(C(=O)O)cc(C(=O)O)c4)cc32)cc(C(=O)O)c1.[Zn+2]	80	> 80
		O=C([O-])c1cc(Oc2cc3c(cc2Oc2cc(C(=O)[O-])cc(C(=O)[O-])c2)-c2nc-3nc3[nH]c(nc4nc(nc5[nH]c(n2)c2cc(Oc6cc(C(=O)[O-])cc(C(=O)[O-])c6)c(Oc6cc(C(=O)[O-])cc(C(=O)[O-])c6)cc52)-c2cc(Oc5cc(C(=O)[O-])cc(C(=O)[O-])c5)c(Oc5cc(C(=O)[O-])cc(C(=O)[O-])c5)cc2-4)c2cc(Oc4cc(C(=O)[O-])cc(C(=O)[O-])c4)c(Oc4cc(C(=O)[O-])cc(C(=O)[O-])c4)cc32)cc(C(=O)[O-])c1.[Na+].[Na+].[Na+].[Na+].[Na+].[Na+].[Na+].[Na+].[Na+].[Na+].[Na+].[Na+].[Na+].[Na+].[Na+].[Na+].[Zn]	80	80
